Assay: Phase Ib/II trial of Example 5: pharmacokinetics
Format: in vivo

| effect of EVE on Compound A1 exposure (preliminary PK analysis) | absorption (steady state (C1D15), Compound A1+EVE+EXE) | EVE exposure at steady state (in vivo) | Compound |
| --- | --- | --- | --- |
| does not affect | rapidly absorbed |  | CN(C)C(=O)c1cc2cnc(Nc3ccc(N4CCNCC4)cn3)nc2n1C1CCCC1 [Compound A1, 7-Cyclopentyl-2-(5-piperazin-1-yl-pyridin-2-ylamino)-7H-pyrrolo[2,3-d]pyrimidine-6-carboxylic acid dimethylamide] |
|  |  | increased | CO[C@H]1C[C@@H]2CC[C@@H](C)[C@@](O)(O2)C(=O)C(=O)N2CCCC[C@H]2C(=O)O[C@H]([C@H](C)C[C@@H]2CC[C@@H](OCCO)[C@H](OC)C2)CC(=O)[C@H](C)/C=C(\C)[C@@H](O)[C@@H](OC)C(=O)[C@H](C)C[C@H](C)/C=C/C=C/C=C/1C [EVE, Everolimus, reference compound] |

From patent US20230405011A1, “COMBINATION THERAPY FOR THE TREATMENT OF CANCER” (Novartis AG, priority 2013, published 2023)
